For 29 molecules, IC50 results are on record in patent US9216991B2 (Ares Trading S.A., priority 2012, dated 2015).

Where a name gives a salt, the structure may show the parent alone.

This assay concerns the target T1, IRAK4 (Homo sapiens, UniProt Q9NWZ3).
T1 construct: His (N); TEV cleavage site (N)
T1 sequence (Q9NWZ3 1-460): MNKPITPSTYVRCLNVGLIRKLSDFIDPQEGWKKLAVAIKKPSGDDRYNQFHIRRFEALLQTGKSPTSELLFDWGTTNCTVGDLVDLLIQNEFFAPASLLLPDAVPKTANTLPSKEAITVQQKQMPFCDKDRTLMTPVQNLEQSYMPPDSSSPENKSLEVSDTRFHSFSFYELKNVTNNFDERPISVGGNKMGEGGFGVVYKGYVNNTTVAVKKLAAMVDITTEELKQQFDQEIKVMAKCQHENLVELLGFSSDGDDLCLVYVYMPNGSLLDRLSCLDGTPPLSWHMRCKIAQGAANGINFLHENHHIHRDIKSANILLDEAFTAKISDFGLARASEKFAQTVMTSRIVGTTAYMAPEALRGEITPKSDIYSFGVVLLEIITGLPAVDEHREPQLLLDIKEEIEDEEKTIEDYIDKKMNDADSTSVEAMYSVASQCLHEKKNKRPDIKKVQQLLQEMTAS
Briefly: IRAK4 Enzymatic Assay. Type of assay: biochemical. Conditions: His-TEV-IRAK4 20 ng/well, ATP 2 μM, STK1-biotin peptide 300 nM, 3 hours at 30° C., FlashPlate radioactivity. As for the experimental part:
IRAK4 is a human purified recombinant enzyme (His-TEV-IRAK1 (194-712)
IRAK4 hydrolyses ATP, autophosphorylates and phosphorylates a Serine/Threonine generic peptidic substrate (STK: 61ST1BLC from CisBio International based in Bagnols/Cèze FR).
Measurement of IRAK-4 inhibition is performed in streptavidin coated 384 well FlashPlate (PerkinElmer #SMP410A). His-TEV-IRAK4 (20 ng/well), ATP (2 μM, [^33P]ATP 0.25 μCi/well), STK1-biotin peptide (300 nM) and compounds in DMSO (range of concentrations from 20 μM to 1nM) or controls (2% DMSO) are incubated for 3 hours at 30° C. in assay buffer: Hepes pH7.0 50 mM, Fatty acid-free BSA 0.1%, Dithiothreitol DTT 2 mM, MgCl2 10 mM, EGTA 0.5 mM, Tween-20 0.01%, MnCl2 5 mM.
Kinase reaction is stopped by addition of EDTA. Supernatant is discarded, plates are washed three times with 150 mM NaCl and radioactivity is then measured in a Microbeta Trilux reader.
With `Cn1cc(-c2cc(F)cc(-c3ncc(-c4cnn(C5CCNCC5)c4)cn3)c2)cn1` [Example 24, 2-[3-Fluoro-5-(1-methyl-1H-pyrazol-4-yl)-phenyl]-5-(1-piperidin-4-yl-1H-pyrazol-4-yl)-pyrimidine hydrochloride], the concentration for half-maximal inhibition (IC50) was in the range of 0.1 to 1 µM. In the case of `Cn1cc(-c2cccc(-c3ncc(-c4cnn(CC(=O)N5CCCCC5)c4)cn3)c2)cn1` [Example 25, 2-(4-{2-[3-(1-Methyl-1H-pyrazol-4-yl)-phenyl]-pyrimidin-5-yl}-pyrazol-1-yl)-1-piperidin-1-yl-ethanone], the half-maximal inhibitory concentration (IC50) lay in the range of 1 to 5 µM. Take `Cn1cc(-c2cccc(-c3ncc(-c4cnn(C5CNC5)c4)cn3)c2)cn1` [Example 26, 5-(1-Azetidin-3-yl-1H-pyrazol-4-yl)-2-[3-(1-methyl-1H-pyrazol-4-yl)-phenyl]-pyrimidine hydrochloride]: the half-inhibitory concentration (IC50) is 1 to 5 µM. For `COCCCn1cc(-c2cnc(-c3cccc(-c4cnn(C)c4)c3)nc2)cn1` [Example 27, 5-[1-(3-Methoxy-propyl)-1H-pyrazol-4-yl]-2-[3-(1-methyl-1H-pyrazol-4-yl)-phenyl]-pyrimidine], the half-maximal inhibitory concentration (IC50) was in the range of 0.1 to 1 µM. Then `Cn1cc(-c2cccc(-c3ncc(-c4cnn(C5CCN(C6COC6)CC5)c4)cn3)c2)cn1` [Example 28, 2-[3-(1-Methyl-1H-pyrazol-4-yl)-phenyl]-5-[1-(1-oxetan-3-yl-piperidin-4-yl)-1H-pyrazol-4-yl]-pyrimidine], with 0.1 to 1 µM. With `Cn1cc(-c2cccc(-c3ncc(-c4cnn(CC5CCNCC5)c4)cn3)c2)cn1` [Example 29, 2-[3-(1-Methyl-1H-pyrazol-4-yl)-phenyl]-5-(1-piperidin-4-ylmethyl-1H-pyrazol-4-yl)-pyrimidine hydrochloride] the figure was 1 to 5 µM; with `Cn1cc(-c2cccc(-c3ncc(-c4cnn(C5CCNCC5F)c4)cn3)c2)cn1` (stereo not drawn) [Example 30, trans-5-[1-(3-Fluoro-piperidin-4-yl)-1H-pyrazol-4-yl]-2-[3-(1-methyl-1H-pyrazol-4-yl)-phenyl]-pyrimidine hydrochloride], 0.1 to 1 µM; with `Cn1cc(-c2cccc(-c3ncc(-c4cnn(C5CCN(CC(O)C(F)(F)F)CC5)c4)cn3)c2)cn1` (centres unmarked) [Example 31, 1,1,1-Trifluoro-3-[4-(4-{2-[3-(1-methyl-1H-pyrazol-4-yl)-phenyl]-pyrimidin-5-yl}-pyrazol-1-yl)-piperidin-1-yl]-propan-2-ol], 0.1 to 1 µM.

Regarding `c1cc(-c2ccncc2)cc(-c2ncc(-c3cnn(C4CCNCC4)c3)cn2)c1` [Example 33, 5-(1-Piperidin-4-yl-1H-pyrazol-4-yl)-2-(3-pyridin-4-yl-phenyl)-pyrimidine hydrochloride], the IC50 lay within 0.1 to 1 µM. With `Cn1cc(-c2cc(O)cc(-c3ncc(-c4cnn(C5CCNCC5)c4)cn3)c2)cn1` [Example 34, 3-(1-Methyl-1H-pyrazol-4-yl)-5-[5-(1-piperidin-4-yl-1H-pyrazol-4-yl)-pyrimidin-2-yl]-phenol Formate] the figure was 0.1 to 1 µM. Then `COCC(O)Cn1cc(-c2cnc(-c3cccc(-c4cnn(C)c4)c3)nc2)cn1` (centres unmarked) [Example 35, 1-Methoxy-3-(4-{2-[3-(1-methyl-1H-pyrazol-4-yl)-phenyl]-pyrimidin-5-yl}-pyrazol-1-yl)-propan-2-ol], with 1 to 5 µM. Then `Cn1cc(-c2cccc(-c3ncc(-c4cnn(CC(=O)N5CCOCC5)c4)cn3)c2)cn1` [Example 36, 2-(4-{2-[3-(1-Methyl-1H-pyrazol-4-yl)-phenyl]-pyrimidin-5-yl}-pyrazol-1-yl)-1-morpholin-4-yl-ethanone], with 0.1 to 1 µM; and `Cn1cncc1-c1cccc(-c2ncc(-c3cnn(CC(=O)N4CCCC4)c3)cn2)c1` [Example 37, 2-(4-{2-[3-(3-Methyl-3H-imidazol-4-yl)-phenyl]-pyrimidin-5-yl}-pyrazol-1-yl)-1-pyrrolidin-1-yl-ethanone], with 1 to 5 µM; and `CN(C)C(=O)Cn1cc(-c2cnc(-c3cccc(-c4cnn(C)c4)c3)nc2)cn1` [Example 38, N,N-Dimethyl-2-(4-{2-[3-(1-methyl-1H-pyrazol-4-yl)-phenyl]-pyrimidin-5-yl}-pyrazol-1-yl)-acetamide], with 0.1 to 1 µM.

Take `Cn1cc(-c2cccc(-c3ncc(-c4cnn(C5CCN(C6CCOCC6)CC5)c4)cn3)c2)cn1` [Example 39, 2-[3-(1-Methyl-1H-pyrazol-4-yl)-phenyl]-5-{1-[1-(tetrahydro-pyran-4-yl)-piperidin-4-yl]-1H-pyrazol-4-yl}-pyrimidine]: the half-maximal inhibitory concentration (IC50) is < 0.1 µM. Then `COC1CN(C(=O)Cn2cc(-c3cnc(-c4cccc(-c5cnn(C)c5)c4)nc3)cn2)C1` [Example 40, 1-(3-Methoxy-azetidin-1-yl)-2-(4-{2-[3-(1-methyl-1H-pyrazol-4-yl)-phenyl]-pyrimidin-5-yl}-pyrazol-1-yl)-ethanone], with 0.1 to 1 µM; and `Cn1cc(-c2cccc(-c3ncc(-c4cnn(CC5CNCCO5)c4)cn3)c2)cn1` (centres unmarked) [Example 41, 2-(4-{2-[3-(1-Methyl-1H-pyrazol-4-yl)-phenyl]-pyrimidin-5-yl}-pyrazol-1-ylmethyl)-morpholine hydrochloride], with 0.1 to 1 µM. `NCCCn1cc(-c2cccc(-c3ncc(-c4cnn(CC(=O)N5CCCC5)c4)cn3)c2)cn1` [Example 42, 2-[4-(2-{3-[1-(3-Amino-propyl)-1H-pyrazol-4-yl]-phenyl}-pyrimidin-5-yl)-pyrazol-1-yl]-1-pyrrolidin-1-yl-ethanone hydrochloride]: the IC50 lay in the range of 1 to 5 µM. Regarding `O=C(Cn1cc(-c2cnc(-c3cccc(-c4ccncc4)c3)nc2)cn1)N1CCCC1` [Example 43, 2-{4-[2-(3-Pyridin-4-yl-phenyl)-pyrimidin-5-yl]-pyrazol-1-yl}-1-pyrrolidin-1-yl-ethanone], the IC50 lay in the range of 1 to 5 µM.

`CC(=O)Cn1cc(-c2cnc(-c3cccc(-c4cnn(C)c4)c3)nc2)cn1` [Example 44, 1-(4-{2-[3-(1-Methyl-1H-pyrazol-4-yl)-phenyl]-pyrimidin-5-yl}-pyrazol-1-yl)-propan-2-one]: the 50% inhibitory concentration (IC50) fell in the range of 0.1 to 1 µM.

For the molecule `Cn1cc(-c2cccc(-c3ncc(-c4cnn(CC5CCOC5)c4)cn3)c2)cn1` (centres unmarked) [Example 45, 2-[3-(1-Methyl-1H-pyrazol-4-yl)-phenyl]-5-[1-(tetrahydro-furan-3-ylmethyl)-1H-pyrazol-4-yl]-pyrimidine], the IC50 fell in the range of 0.1 to 1 µM. With `Cn1cc(-c2cccc(-c3ncc(-c4cnn(Cc5ncco5)c4)cn3)c2)cn1` [Example 46, 2-[3-(1-Methyl-1H-pyrazol-4-yl)-phenyl]-5-(1-oxazol-2-ylmethyl-1H-pyrazol-4-yl)-pyrimidine] the figure was 1 to 5 µM; with `Cn1cc(-c2cccc(-c3ncc(-c4cnn(CCc5ccccn5)c4)cn3)c2)cn1` [Example 47, 2-[3-(1-Methyl-1H-pyrazol-4-yl)-phenyl]-5-[1-(2-pyridin-2-yl-ethyl)-1H-pyrazol-4-yl]-pyrimidine], 0.1 to 1 µM. Then `Cn1cc(-c2cccc(-c3ncc(-c4cnn(C5CCNCC5)c4)cn3)c2F)cn1` [Example 48, 2-[2-Fluoro-3-(1-methyl-1H-pyrazol-4-yl)-phenyl]-5-(1-piperidin-4-yl-1H-pyrazol-4-yl)-pyrimidine Formate], with 1 to 5 µM; and `Cn1cc(-c2cccc(-c3ncc(-c4cnn(CC(N)=O)c4)cn3)c2)cn1` [Example 49, 2-(4-{2-[3-(1-Methyl-1H-pyrazol-4-yl)-phenyl]-pyrimidin-5-yl}-pyrazol-1-yl)-acetamide], with 1 to 5 µM; and `NCCn1cc(-c2cccc(-c3ncc(-c4cnn(CC(=O)N5CCCC5)c4)cn3)c2)cn1` [Example 50, 2-[4-(2-{3-[1-(2-Amino-ethyl)-1H-pyrazol-4-yl]-phenyl}-pyrimidin-5-yl)-pyrazol-1-yl]-1-pyrrolidin-1-yl-ethanone hydrochloride], with 1 to 5 µM. Then `CN1CCN(C(=O)Cn2cc(-c3cnc(-c4cccc(-c5cnn(C)c5)c4)nc3)cn2)CC1` [Example 51, 1-(4-Methyl-piperazin-1-yl)-2-(4-{2-[3-(1-methyl-1H-pyrazol-4-yl)-phenyl]-pyrimidin-5-yl}-pyrazol-1-yl)-ethanone hydrochloride], with 0.1 to 1 µM; and `Cn1cc(-c2cccc(-c3ncc(-c4cnn(CCc5ccncc5)c4)cn3)c2)cn1` [Example 53, 2-[3-(1-Methyl-1H-pyrazol-4-yl)-phenyl]-5-[1-(2-pyridin-4-yl-ethyl)-1H-pyrazol-4-yl]-pyrimidine], with < 0.1 µM.

`Cn1cc(-c2cccc(-c3ncc(-c4cnn(CC(=O)NC5CCOCC5)c4)cn3)c2)cn1` [Example 54, 2-(4-{2-[3-(1-Methyl-1H-pyrazol-4-yl)-phenyl]-pyrimidin-5-yl}-pyrazol-1-yl)-N-(tetrahydro-pyran-4-yl)-acetamide]: the 50% inhibitory concentration (IC50) is 0.1 to 1 µM.
